Reference: paper PMC3973694, “Identification of Odorant-Receptor Interactions by Global Mapping of the Human Odorome” (PLoS ONE, 2014)
“And” between values parts separate entries of the source, which are not always exact repeats. Equal entries are not always repeated. Structures can show the parent of a compound that is named as a salt. Where two headings read alike, the source gives them in different places.

Columns and labels:
[1] = target: T1, OR51E1 (Homo sapiens, UniProt Q8TCB6); test: GloSensor cAMP assay, OR51E1-transfected Hana3A cells; assay type: cell-based
T1 construct: host or cells: Hana3A cells (HEK293T-derived), co-transfected with pCI-RTP1S and pGlo-22F
T1 sequence (Q8TCB6 1-318): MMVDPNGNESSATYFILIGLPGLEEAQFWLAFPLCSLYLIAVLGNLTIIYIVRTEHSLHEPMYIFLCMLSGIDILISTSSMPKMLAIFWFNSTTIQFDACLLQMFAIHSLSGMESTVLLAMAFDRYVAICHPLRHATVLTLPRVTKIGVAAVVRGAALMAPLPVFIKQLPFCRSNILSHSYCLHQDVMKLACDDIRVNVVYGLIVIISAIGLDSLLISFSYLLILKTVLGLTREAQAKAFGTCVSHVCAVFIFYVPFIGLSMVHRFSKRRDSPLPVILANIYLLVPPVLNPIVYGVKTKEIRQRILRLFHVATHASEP
Description: (§1) To validate predicted interactions between odorant compounds and ORs or the CB1 receptor, we used the GloSensor cAMP assay from Promega and measured the EC50 values of compounds. This luminescent assay is a sensitive method for measuring Gs and Gi- protein coupled receptor activation by real-time detection of intracellular second messenger cAMP [44]. The protocol is described in the GloSensor cAMP assays paragraph in the Supplementary Methods (S_file).
(§2) All odorants used in these assays were purchased from Sigma-Aldrich (Saint-Quentin Fallavier, France) except celery ketone, which was kindly provided by B. Schilling (Givaudan Schweiz AG, Dübendorf, Switzerland). The stock solutions of odorants (100 mM) were prepared in dimethylsulfoxide (DMSO) and were stored at -20°C. Immediately prior to the assays, the stock solutions of odorants were diluted in the CO2-independent medium (Gibco®, Life Technologies) to the appropriate concentrations. The final concentration of DMSO in wells never exceeded 1% (v/v); this concentration had no effect on GloSensor cAMP assays.
(§3) To validate predicted odorant compound-OR interactions, we used the GloSensor™ cAMP assay (Promega, Charbonnières-Les-Bains, France) to measure EC50 values of compounds. The functional assay was performed in Hana3A cells, a HEK293T-derived cell line optimized for OR expression. Hana3A cells were grown in Minimal Essential Medium (MEM; Life Technologies, Villebon-sur-Yvette, France) supplemented with 10% fetal bovine serum (PAA Laboratories, Les Mureaux, France), 100 μM Eagle’s non-essential amino acids, 2 mM glutamax (Life Technologies) and 1 μg/ml puromycin (Sigma-Aldrich, Saint-Quentin Fallavier, France). The cells were cultured at 37°C in a humidified atmosphere containing 7.3% CO2. Forty-eight hours before performing the GloSensor™ cAMP assay, cells were plated on poly-D-lysine coated 96-well plates (BD Biosciences, Le Pont de Claix, France) at a density of 3x10^4 cells per well. Twenty-four hours later, cells were transiently transfected with the OR expression plasmid (50 ng per well) together with the pCI-RTP1S plasmid and the pGlo™-22F cAMP plasmid (Promega) (10 ng and 100 ng per well, respectively) using Fugene®HD (Promega) according to the manufacturer instructions. In addition, to check that induced activities are OR-dependent, mock transfections were performed by transfecting the cells with the pCI plasmid in place of the OR expression plasmid. […] Luminescence was measured with a Victor 3V plate reader (Perkin Elmer, Courtaboeuf, France) after addition of odorant solutions (10 μl). […]

[2] = tested on: Hana3A cells; test: Cytotoxic effects seen in the OR GloSensor assay; assay type: cell-based; conditions: no saturation of the response could be observed
Protocol: as §3, with “instructions.” for “instructions. In addition, to check that induced activities are OR-dependent, mock transfections were performed by transfecting the cells with the pCI plasmid in place of the OR expression plasmid.”

[3] = target: T2, OR5P3 (Homo sapiens, UniProt Q8WZ94); test: GloSensor cAMP assay, OR5P3-transfected Hana3A cells; assay type: cell-based; conditions: activation of OR5P3, Hana3A cells, mean ± s.e.m., at least three experiments
T2 construct: host or cells: Hana3A cells (HEK293T-derived), co-transfected with pCI-RTP1S and pGlo-22F
T2 sequence (Q8WZ94 1-311): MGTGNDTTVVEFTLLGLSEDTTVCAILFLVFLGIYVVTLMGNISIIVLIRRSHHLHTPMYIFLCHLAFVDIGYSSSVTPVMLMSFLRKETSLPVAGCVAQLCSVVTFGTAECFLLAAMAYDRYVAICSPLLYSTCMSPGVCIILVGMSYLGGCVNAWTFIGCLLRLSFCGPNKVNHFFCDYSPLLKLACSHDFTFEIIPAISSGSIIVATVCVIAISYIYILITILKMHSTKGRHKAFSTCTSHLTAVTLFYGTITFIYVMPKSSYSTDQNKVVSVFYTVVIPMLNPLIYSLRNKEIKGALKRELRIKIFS
Description: as §1, §2
as §3, with “well.” for “well. Twenty-four hours later, cells were transiently transfected with the OR expression plasmid (50 ng per well) together with the pCI-RTP1S plasmid and the pGlo™-22F cAMP plasmid (Promega) (10 ng and 100 ng per well, respectively) using Fugene®HD (Promega) according to the manufacturer instructions. In addition, to check that induced activities are OR-dependent, mock transfections were performed by transfecting the cells with the pCI plasmid in place of the OR expression plasmid.”

[4] = target: human cannabinoid receptor CB1 (Homo sapiens, UniProt P21554); test: GloSensor cAMP assay, CB1-transfected HEK293 cells; assay type: cell-based; conditions: for EC50: increase in cAMP production, forskolin-stimulated control cells, mean ± s.e.m., three experiments
[5] = target: T3, OR2W1 (Homo sapiens, UniProt Q9Y3N9); test: GloSensor cAMP assay, OR2W1-transfected Hana3A cells; assay type: cell-based; conditions: activation of OR2W1, Hana3A cells, mean ± s.e.m., at least three experiments
T3 construct: host or cells: Hana3A cells (HEK293T-derived), co-transfected with pCI-RTP1S and pGlo-22F
T3 sequence (Q9Y3N9 1-320): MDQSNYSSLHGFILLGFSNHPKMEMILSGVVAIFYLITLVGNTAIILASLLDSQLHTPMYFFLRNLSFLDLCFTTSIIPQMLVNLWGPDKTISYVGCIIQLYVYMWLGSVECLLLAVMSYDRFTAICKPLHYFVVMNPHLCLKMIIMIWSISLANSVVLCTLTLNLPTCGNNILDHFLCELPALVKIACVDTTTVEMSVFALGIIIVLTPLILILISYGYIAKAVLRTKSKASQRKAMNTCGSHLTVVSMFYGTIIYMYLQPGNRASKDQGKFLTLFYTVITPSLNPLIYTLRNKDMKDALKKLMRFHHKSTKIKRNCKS
Description: as §1, §2
as §3, with “well.” for “well. Twenty-four hours later, cells were transiently transfected with the OR expression plasmid (50 ng per well) together with the pCI-RTP1S plasmid and the pGlo™-22F cAMP plasmid (Promega) (10 ng and 100 ng per well, respectively) using Fugene®HD (Promega) according to the manufacturer instructions. In addition, to check that induced activities are OR-dependent, mock transfections were performed by transfecting the cells with the pCI plasmid in place of the OR expression plasmid.”

[6] = target: T4, human PPARγ ligand binding domain (Homo sapiens, UniProt P37231); test: Competitive PPARγ binding assay (LanthaScreen TR-FRET); conditions: IC50 (inhibition of binding), displacement of fluorescent pan PPAR agonist tracer
T4 sequence (P37231 238-503 limits assumed): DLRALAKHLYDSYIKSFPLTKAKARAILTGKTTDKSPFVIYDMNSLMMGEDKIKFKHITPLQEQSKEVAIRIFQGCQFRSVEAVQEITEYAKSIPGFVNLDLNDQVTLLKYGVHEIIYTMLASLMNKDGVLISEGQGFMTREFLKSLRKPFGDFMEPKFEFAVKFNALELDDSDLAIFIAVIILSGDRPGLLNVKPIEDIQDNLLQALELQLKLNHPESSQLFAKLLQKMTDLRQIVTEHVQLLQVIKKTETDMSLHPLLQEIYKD
Protocol: To validate predictions of odorant-PPARγ interactions, IC50 values for respective compounds were determined by competitive binding using time-resolved fluorescence resonance energy transfer (LanthaScreen, Invitrogen) on a Wallac EnVision (PerkinElmer).
To validate predictions of odorant-PPARγ interactions, IC50 values for respective compounds were determined by competitive binding using time-resolved fluorescence resonance energy transfer (LanthaScreen, Invitrogen) on a Wallac EnVision (PerkinElmer). A terbium labeled anti-GST antibody was used to label purified GST-tagged human PPARγ ligand binding domain. Energy transfer from terbium to the tracer, a fluorescent pan PPAR agonist, enabled read-out of each test compound’s ability to displace the tracer. […] An unrestrained sigmoidal (one-binding site) dose-response curve was fitted to each data set by linear regression allowing for determination of IC50 values.

[7] = absence or presence of pertussis toxin
[8] = activation of OR51E1, Hana3A cells, mean ± s.e.m., at least three experiments, read-out: EC50

Chain of human cannabinoid receptor CB1 (P21554 whole entry): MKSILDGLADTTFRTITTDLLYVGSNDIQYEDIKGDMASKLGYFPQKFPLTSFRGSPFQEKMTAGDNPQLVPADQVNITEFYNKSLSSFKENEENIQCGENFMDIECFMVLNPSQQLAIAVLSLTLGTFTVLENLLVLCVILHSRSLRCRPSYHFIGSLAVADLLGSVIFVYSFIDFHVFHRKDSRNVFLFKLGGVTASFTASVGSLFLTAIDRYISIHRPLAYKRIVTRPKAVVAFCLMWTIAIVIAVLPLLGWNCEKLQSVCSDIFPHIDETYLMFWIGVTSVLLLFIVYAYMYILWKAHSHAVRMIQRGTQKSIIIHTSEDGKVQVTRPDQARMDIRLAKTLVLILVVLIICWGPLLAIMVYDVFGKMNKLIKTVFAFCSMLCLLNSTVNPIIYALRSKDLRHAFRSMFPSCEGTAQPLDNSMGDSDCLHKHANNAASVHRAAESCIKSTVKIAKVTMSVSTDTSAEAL

CCCCCCCCC(=O)O [Nonanoic acid, reference compound]
EC50 [1]: 197 µM

CCCCCCCCO [1-octanol]
concentrations with cytotoxic effects [2]: higher than 10^−3 M | EC50 [3]: 115 µM

CCCCOC(=O)CC(CC(=O)OCCCC)(OC(C)=O)C(=O)OCCCC [Tributyl acetyl citrate]
mode of action at CB1 [4, 7]: inverse agonists | EC50 [4]: 122 ± 25.2 µM

CC(C)=CCC/C(C)=C/C=O [Citral]
EC50 [5]: 129 µM

CCCC1CC(=O)C=C(C)C1 (stereo not drawn) [celery ketone]
concentrations with cytotoxic effects [2]: higher than 10^−3 M | EC50 [3]: 483 µM

O=C(OCCc1ccccc1)c1ccccc1O [phenylethyl salicylate]
IC50 [6]: 9.2 µM and 14.7 µM

O=C1C[C@@H](c2ccc(O)cc2)Oc2cc(O)cc(O)c21 [naringenin]
IC50 [6]: 7.4 µM

C=C(C)C1CC=C(C)C(=O)C1 (single isomer, unassigned; (-)) [(-)-carvone, reference compound]
EC50 [3]: 388 µM

CCCCCCCC(C)=O [2-Nonanone]
mode of action at CB1 [4, 7]: inverse agonists | EC50 [4]: 363 ± 80.7 µM

CC(C)=CCCC(C)CC=O (stereo not drawn) [Citronellal]
EC50 [5]: 208 µM

CCCCCC(=O)OCCc1ccccc1 [2-Phenylethyl hexanoate]
mode of action at CB1 [4, 7]: inverse agonists | EC50 [4]: 509 ± 8.3 µM

CC(=O)OCc1ccccc1 [Benzyl acetate, reference compound]
EC50 [5]: 34.3 ± 1.17 µM

CCCCCCC(C)(C)c1cc(O)c2c(c1)OC(C)(C)[C@@H]1CC=C(CO)C[C@@H]21 [HU210, (6aR)-trans-3-(1,1-dimethylheptyl)-6a,7,10,10a,-tetrahydro-1-hydroxy-6,6-dimethyl-6H-dibenzo[b,d]pyran-9-methanol, reference compound]
mode of action at CB1 [4]: agonists

CC(C)CC(=O)O [Isovaleric acid]
EC50 [1, 8]: 153 µM

CCC(=O)O [Propionic acid]
fold lower activity ([1]; OR51E1, compared with isovaleric acid and nonanoic acid): 5 fold | EC50 [1, 8]: 923 µM
